Test results published in patent US4250094A, “1-(Aminoalkyl) substituted-6-phenyl-4H-s-triazolo[4,3-a][1,4]benzodiazepines” (priority 1979, dated 1981).
“Also recorded” adds a separate entry of the source. Counter-ions that a name gives are not always drawn.

Assays:
oxotremorine [1] = settings: in words, cited from earlier work; for block of oxotremorine hypothermic response: mice
oxotremorine [2] = assay: Hypothermic tests with oxotremorine: body temperature change; type: in vivo, mice; settings: for Body Temperature °F. Change From Vehicle Control After 15 Minutes / Body Temperature °F. Change From Vehicle Control After 30 Minutes / Body Temperature °F. Change From Vehicle Control After 60 Minutes / Body Temperature °F. Change From Vehicle Control After 90 Minutes: ip, 0.5 h; for antagonism of oxotremorine temperature decrease: oxotremorine 0.6 mg./kg., in words
Text: Hypothermic tests with oxotermorine: [1-(4-pyrrolidino-2-butynyl)-2-pyrrolidinone].

nicotine = settings: control (untreated) mice, nicotine salicylate 2 mg./kg.
yohimbine = type: in vivo, mice; settings: Table VII
Experimental: Ten male CF mice, 18-22 g., were injected with the anti-depressant and 30 minutes later with 30 mg. of yohimbine hydrochloride (YCl) in saline solution. After two hours, the LD50 are determined.

oxotremorine [3] = type: in vivo, mice; settings: Table VII
Experimental: The present compounds were tested as follows. […] The lowering of the body temperature was measured rectally with an electronic thermometer, before and 30 minutes after drug administration. After the drug administration the mice were kept at 19° C. in cages. A four degree difference between the control mice (oxotremorine alone) and the treated mice (oxotremorine and test compound) was used to indicate the antagonistic action of the test compound.

strychnine = type: in vivo; settings: 3 mg./kg. intraperitoneally
Experimental: The test consists in orally administering into groups of 6 mice the test compound, and 30 minutes later 3 mg./kg. strychnine sulfate intraperitoneally. The survivors after 4 hours reflect the activity of the compound as a muscle relaxant and antispasmodic.

apomorphine = settings: Table VII
[4] = Lethality of yohimbine hydrochloride alone; type: in vivo; settings: mice, 30 mg./kg., in words
Experimental: After two hours, the LD50 are determined.

**Q.** Which “hypothermic response in mice” value (oxotremorine [1]) does the source give for CN1CCc2cccc3c2[C@H]1Cc1ccc(O)c(O)c1-3 [apomorphine] here?
**A.** produces hypothermic responses in mice

**Q.** For CNCCCN1c2ccccc2CCc2ccccc21 [Desipramine], which “Body Temperature °F. Change From Vehicle Control After 15 Minutes” value (oxotremorine [2]; 25 mg/kg) is on record?
**A.** -3.5 °F.

**Q.** And the “Body Temperature °F. Change From Vehicle Control After 30 Minutes” value (oxotremorine [2]; 25 mg/kg)?
**A.** - 3.5 °F.

**Q.** And the “Body Temperature °F. Change From Vehicle Control After 60 Minutes” value (oxotremorine [2]; 25 mg/kg)?
**A.** - 4.1 °F.

**Q.** And the “Body Temperature °F. Change From Vehicle Control After 90 Minutes” value (oxotremorine [2]; 25 mg/kg)?
**A.** - 3.6 °F.

**Q.** What about the “antagonism of oxotremorine temperature decrease” value (oxotremorine [2]; mice) of the same compound?
**A.** antagonized

**Q.** With CN1CCC[C@H]1c1cccnc1 [nicotine salicylate] as the compound, how does the “effect of nicotine salicylate in control mice” value (nicotine) read?
**A.** running convulsions followed by (2) tonic extensor fits; followed by (3) death

**Q.** For NCc1nnc2n1-c1ccc(Cl)cc1C(c1ccccc1)=NC2 [1-(Aminomethyl)-8-chloro-6-phenyl-4H-s-triazolo[4,3-a][1,4]benzodiazepine], which “YO (Yohimbine test)” value (yohimbine) is on record?
**A.** 35.4

**Q.** And the “Oxo (oxotremorine test)” value (oxotremorine [3])?
**A.** 29.7

**Q.** Which results are given for CN(C)CCCN1c2ccccc2CCc2ccccc21 [Imipramine]?
**A.** block of oxotremorine hypothermic response (oxotremorine [1]): blocked; Body Temperature °F. Change From Vehicle Control After 15 Minutes (oxotremorine [2]; 25 mg/kg): -0.4 °F.; Body Temperature °F. Change From Vehicle Control After 30 Minutes (oxotremorine [2]; 25 mg/kg): - 3.3 °F.; Body Temperature °F. Change From Vehicle Control After 60 Minutes (oxotremorine [2]; 25 mg/kg): - 5.6 °F.; Body Temperature °F. Change From Vehicle Control After 90 Minutes (oxotremorine [2]; 25 mg/kg): - 6.4 °F.; antagonism of oxotremorine temperature decrease (oxotremorine [2]; mice): antagonized

**Q.** With CN1[C@@H]2CC[C@H]1C[C@@H](OC(=O)C(CO)c1ccccc1)C2 (stereo partly shown) [Atropine] as the compound, how does the “block of oxotremorine hypothermic response” value (oxotremorine [1]) read?
**A.** blocked

**Q.** For CC(N)Cc1ccccc1 (stereo not shown) [Amphetamine], which “Body Temperature °F. Change From Vehicle Control After 15 Minutes” value (oxotremorine [2]; 5 mg/kg) is on record?
**A.** -1.5 °F.

**Q.** And the “Body Temperature °F. Change From Vehicle Control After 30 Minutes” value (oxotremorine [2]; 5 mg/kg)?
**A.** - 4.3 °F.

**Q.** What about the “Body Temperature °F. Change From Vehicle Control After 60 Minutes” value (oxotremorine [2]; 5 mg/kg) of the same compound?
**A.** - 4.4 °F.

**Q.** And the “Body Temperature °F. Change From Vehicle Control After 90 Minutes” value (oxotremorine [2]; 5 mg/kg)?
**A.** - 2.2 °F.

**Q.** For O=C1C[C@@H]2OCC=C3CN4CC[C@]56c7ccccc7N1[C@H]5[C@H]2[C@H]3C[C@H]46 [strychnine sulfate], which “lethality of strychnine sulfate in control mice” value (strychnine) is on record?
**A.** routinely fatal to all the control mice

**Q.** With CN(C)Cc1nnc2n1-c1ccc(Cl)cc1C(c1ccccc1Cl)=NC2 [8-Chloro-1-[(dimethylamino)methyl]-6-(o-chlorophenyl)-4H-s-triazolo[4,3-a][1,4]benzodiazepine] as the compound, how does the “Ap (Apomorphine test)” value (apomorphine) read?
**A.** 17.8

**Q.** For O=C1CCCN1CC#CCN1CCCC1 [Oxotremorine, 1-(4-pyrrolidino-2-butynyl)-2-pyrrolidinone], which “hypothermic response in mice” value (oxotremorine [1]) is on record?
**A.** produces hypothermic responses in mice

**Q.** And the “decrease of body temperature of a mouse” value (oxotremorine [2]; 0.6 mg./kg., mouse kept at room temperature)?
**A.** about 13 ° F.

**Q.** What about the “time of peak hypothermia after administration” value (oxotremorine [2]; mice) of the same compound?
**A.** 60 min

**Q.** Which results are given for CN(C)CCC=C1c2ccccc2CCc2ccccc21 [Amitriptyline]?
**A.** Body Temperature °F. Change From Vehicle Control After 15 Minutes (oxotremorine [2]; 25 mg/kg): +0.7 °F.; Body Temperature °F. Change From Vehicle Control After 30 Minutes (oxotremorine [2]; 25 mg/kg): - 2.4 °F.; Body Temperature °F. Change From Vehicle Control After 60 Minutes (oxotremorine [2]; 25 mg/kg): - 5.4 °F.; Body Temperature °F. Change From Vehicle Control After 90 Minutes (oxotremorine [2]; 25 mg/kg): - 6.8 °F.

**Q.** With CN(C)CCC=C1c2ccccc2COc2ccccc21 [Doxepine] as the compound, how does the “Body Temperature °F. Change From Vehicle Control After 15 Minutes” value (oxotremorine [2]; 25 mg/kg) read?
**A.** -2.3 °F.

**Q.** What about the “Body Temperature °F. Change From Vehicle Control After 30 Minutes” value (oxotremorine [2]; 25 mg/kg) of the same compound?
**A.** - 7.1 °F.

**Q.** What about the “Body Temperature °F. Change From Vehicle Control After 60 Minutes” value (oxotremorine [2]; 25 mg/kg) of the same compound?
**A.** -11.0 °F.

**Q.** What about the “Body Temperature °F. Change From Vehicle Control After 90 Minutes” value (oxotremorine [2]; 25 mg/kg) of the same compound?
**A.** -12.3 °F.

**Q.** What about the “antagonism of oxotremorine temperature decrease” value (oxotremorine [2]; mice) of the same compound?
**A.** antagonized

**Q.** With COc1cc2c(cc1OC)C1CC(=O)C(CC(C)C)CN1CC2 (stereo not shown) [tetrabenazine] as the compound, how does the “hypothermic response in mice” value (oxotremorine [1]) read?
**A.** produces hypothermic responses in mice

**Q.** What does the source list for COC(=O)[C@@H]1[C@H]2C[C@H]3c4[nH]c5ccccc5c4CCN3C[C@@H]2CC[C@@H]1O [yohimbine hydrochloride]?
**A.** lethality of yohimbine hydrochloride alone [4]: non-lethal; lethality of yohimbine hydrochloride alone ([4]; listed as YCl): no death; also recorded: No mice or only one mouse is killed
